The values that follow come from patent publication US9605026B2, “Hydrogen-bond surrogate peptides and peptidomimetics for p53 reactivation” (New York University, priority 2013, dated 2017).

The subject of experiment [1] is UMSCC47 cells. Kind of experiment: Clonogenic survival of UMSCC47 cells. It counts as cell-based, human. The settings on record: UMSCC47, 10 μM at day 0, colonies at 14 days, vs vehicle.
Experiment [2] has as its system UMSCC47 cells. Kind of experiment: Tumorsphere formation of UMSCC47 cells. It counts as cell-based, human. To be noted: UMSCC47, 10 μM, 7 days, vs vehicle. The protocol: FIG. 6A is a western blot showing total and acetylated p53 levels. UMSCC47 cells were treated with control (vehicle), CH1iB (10 μM), cis-platinum (10 μM), or CH1iB (10 μM) and cis-platinum (10 μM) for 24 hours. Cell lysates were immunoblotted with anti-p53 or anti-acetylated[K382]-p53 antibody. FIG. 6B is a graph of p53 transcriptional activity. UMSCC47 cells were co-transfected with a p53 Firefly luciferase reporter plasmid and a control Renilla luciferase plasmid. After 24 hours, cells were treated with control (vehicle), CH1iB (10 μM), cis-platinum (10 μM), or CH1iB (10 μM) and cis-platinum (10 μM) for 24 hours. Firefly luciferase activity was normalized to Renilla luciferase activity to control for transfection efficiency. […] UMSCC47 cells were treated with control (vehicle), CH1iB (10 μM), cis-platinum (10 μM), or CH1iB (10 μM) and cis-platinum (10 μM) for 24 hours. mRNA expression was determined using qPCR with validated TaqMan assays. […] FACS was used to quantitate Annexin V-positive apoptotic cells (left panel). […] Tumorsphere formation efficiency was calculated as the number of tumorspheres (≧50 μm in diameter) formed in 7 days divided by the original number of cells seeded. Tumorsphere diameter was measured using NIS-Elements software. […]

On to “XELA*RALDQ-NH2 (ELXRALDQ; HBS: 4-pentenoic acid, N-allylalanine; C-terminal amide; CH1iB) [X 4-pentenoic acid, A* N-allylalanine]”, for which the “reduction (inhibition) of clonogenic survival” value in experiment [1] was 35%. For the same substance, in experiment [2], the “reduction of tumorsphere formation” value was found to be 20%.
